Reference: ChEMBL document CHEMBL3045282, “Production of phytotoxins by Phoma exigua var. exigua, a potential mycoherbicide against perennial thistles” (J Agric Food Chem, 2008)
Active and inactive are the calls of the source. The rule behind the calls is not given here.

Columns and labels:
Cirsium arvense = assay: Herbicidal activity against Cirsium arvense (Canada thistle) assessed as induction of leaf necrotic lesions measured 48 hr post compound treatment by leaf disk- puncture bioassay
Sonchus arvensis = assay: Herbicidal activity against Sonchus arvensis (field sow-thistle) assessed as induction of leaf necrotic lesions measured 48 hr post compound treatment by leaf disk- puncture bioassay

Compound | Activity (Cirsium arvense) | Activity (Sonchus arvensis)
C=C1[C@@H](C)[C@H]2[C@H](Cc3ccccc3)NC(=O)[C@]23OC(=O)/C=C/[C@H](O)CCC[C@@H](C)C/C=C/[C@H]3[C@@H]1O | Active | Active
O=Cc1ccc(O)cc1 | inactive | inactive
C[C@H]1C/C=C/[C@H]2C=C(CO)[C@@H](C)[C@H]3[C@H](Cc4ccccc4)NC(=O)[C@]32OC(=O)/C=C/[C@H](O)CCC1 | Active | Active
C=C1[C@@H](C)[C@H]2[C@H](Cc3ccccc3)NC(=O)[C@]23C(=O)/C=C/[C@H](O)CCC[C@@H](C)C/C=C/[C@H]3[C@@H]1O | Active | Active
C[C@H]1C/C=C/[C@H]2[C@@H]3O[C@]3(C)[C@@H](C)[C@H]3[C@H](Cc4ccccc4)NC(=O)[C@]32OC(=O)/C=C/[C@@H](O)CCC1 | Active | Active
C=C1[C@@H](C)[C@H]2[C@H](Cc3ccccc3)NC(=O)[C@]23OC(=O)/C=C/CC(O)CC[C@@H](C)C/C=C/[C@H]3[C@@H]1O (stereo partly specified) | Active | 
